Test results reported in patent US6680052B1, “Methods of inhibiting tumor growth using adenosine receptor activated cells” (Endacea, Inc., priority 1999, dated 2004).

Legend:
[1] = test system: pulmonary arterial endothelial cells; assay: Thromboxane release from pulmonary arterial endothelial cells; assay type: cell-based
Source text: DPCPX and ^125I-BW A844U. These findings indicate that LPS binds to and activates Al adenosine receptors on pulmonary artery endothelial cells. Also, A1 adenosine receptor antagonists are able to block such endotoxin-induced lung injury, supporting that activation of A1 adenosine receptors is important in endotoxin-induced acute lung injury. Neely, Jin and Keith, Am J. Physiol., Lung Cell Mol. Physiol. , 268:L1036, 1995.
The methods of the present invention also utilize hypoxia and reoxygenation conditions to increase A1 adenosine receptor activation and signal transduction pathways which, following activation, result in the release of cytotoxic substances. As noted above, following ischemia and reperfusion, activation of A1 adenosine receptors present on pulmonary arterial endothelial cells causes a cytotoxic effect (Neely and Keith (1995)), and the release of a cytotoxic substance, thromboxane, has been found by the present inventor to be blocked by an A1 adenosine receptor antagonist (DPCPX). In heart tissue adenosine, A1 adenosine receptor agonists, or a brief period of preconditioning ischemia attenuates ischemia-reperfusion (I-R) injury. In the lung, thromboxane is released during ischemia and is a mediator of I-R injury. Moreover, ischemia and reperfusion enhance the capacity of LPS to produce cytotoxicity and damage organs. […]

[2] = test system: pulmonary artery endothelial cells; assay: Phospholipase A2 increase following hypoxia/anoxia of pulmonary artery endothelial cells in vitro; assay type: cell-based
Experimental: Following ischemia and reperfusion, activation of A1 adenosine receptors present on pulmonary arterial endothelial cells results in a cytotoxic effect. In heart tissue adenosine, A1 adenosine receptor agonists, or a brief period (from approximately 5 to about 15 minutes) of preconditioning ischemia attenuates ischemia-reperfusion (I-R) injury. See, […] Keith, Am. J. Physiol. 268:[…] (1995). In the lung, thromboxane is released during ischemia and is a mediator of I-R injury. Adenosine produces vasoconstriction in the pulmonary vascular bed by acting on A1 receptors to induce the release of thromboxane. These vasoconstrictor responses in endothelial cells are desensitized by prior treatment with low doses of A1 receptor agonists. It was hypothesized that during preconditioning ischemia, adenosine attenuates ischemia-reperfusion injury of the heart by activation and subsequent desensitization of A1 adenosine receptors. Preconditioning ischemia attenuates ischemia-reperfusion (I-R) injury of both lung and heart. […]

A1 adenosine receptors = biological target: T1, A1 adenosine receptors (Homo sapiens, UniProt P30542); assay: Endotoxin induced inhibition of adenylate cyclase in pulmonary arterial endothelial cells; assay type: cell-based
T1 construct: endogenous in cells; host or cells: pulmonary arterial endothelial cells
T1 sequence (P30542 1-326): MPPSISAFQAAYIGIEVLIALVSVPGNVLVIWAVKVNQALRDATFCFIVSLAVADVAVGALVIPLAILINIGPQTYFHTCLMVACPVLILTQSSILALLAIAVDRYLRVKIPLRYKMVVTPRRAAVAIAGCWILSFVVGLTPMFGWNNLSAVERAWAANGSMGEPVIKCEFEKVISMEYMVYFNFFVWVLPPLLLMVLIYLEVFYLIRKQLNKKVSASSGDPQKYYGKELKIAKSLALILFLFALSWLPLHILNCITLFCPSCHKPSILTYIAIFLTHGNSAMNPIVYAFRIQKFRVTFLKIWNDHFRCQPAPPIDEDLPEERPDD
Source text: DPCPX and ^125I-BW A844U. […] Neely, Jin and Keith, Am J. Physiol., Lung Cell Mol. Physiol. , 268:L1036, 1995.

[3] = test system: human metastatic cell lines; conditions: administered directly to the cell lines, in vitro; cited from earlier work
[4] = test system: human epidermoid carcinoma cells; conditions: low versus higher concentrations; cited from earlier work
monocytes = conditions: cited from earlier work

CCCn1c(=O)c2[nH]c(C3CCCC3)nc2n(CCC)c1=O [DPCPX, 1,3 dipropyl 8 cyclopentylxanthine]
release of thromboxane ([1]; following ischemia and reperfusion, A1 adenosine receptor activation): blocked
endotoxin induced thromboxane release ([1]; pulmonary arterial endothelial cells): blocked
increase in phospholipase A2 (PLA2) [2]: inhibits
endotoxin induced inhibition of adenylate cyclase (A1 adenosine receptors): blocked

CCNC(=O)[C@H]1O[C@@H](n2cnc3c(N)ncnc32)[C@H](O)[C@@H]1O [NECA, 5′-(N-ethyl)-carboxamidoadenosine]
effect on cell growth [3]: inhibitory effect

CCCn1c(=O)c2[nH]c(-c3ccc(Cl)cc3N)nc2n(CCC)c1=O [PACPX, 1,3-dipropyl-8-(2-amino-4-chloropheny)-xanthine]
effect on cell growth [3]: inhibitory effect

Nc1ncnc2c1ncn2[C@@H]1O[C@H](CO)[C@@H](O)[C@H]1O [adenosine]
colony formation [4]: biphasic response

[Na+].[Na+].[Na+].[O]=[V]([O-])([O-])[O-] [vanadate, sodium orthovanadate]
LPS induced production of TNFα (monocytes): enhanced
